The supplement of paper PMC11061612

Columns and labels:
Assay in all cases: combination Emax (second highest fraction inhibited in the dose matrix, 72 h); higher = more inhibition; extreme values may be limits of the assay
[1] = tested on: KP-4 (Pancreatic Carcinoma)
Summary of the method: (§1)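 After 24 hours at 37°C and 5% CO2 in 1536-well plates, cells in DMEM/F12 or RPMI plus 10% FBS received two-drug dose matrices for 72 hours. Viability came from CellTiter-Glo 2.0 luminescence and was scaled as inhibition, anchored at 0 by vehicle wells and at 1 by blank wells. Combination Emax is taken as the second-highest inhibition in the matrix, and Bliss excess as the observed combination effect less EA + EB − EA·EB, with EA and EB the single-agent effects.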

[2] = tested on: MDA-MB-415 (Breast Carcinoma)
Summary of the method: as §1

[3] = tested on: SNU-423 (Hepatocellular Carcinoma)
Summary of the method: as §1

[4] = tested on: PL4 (Pancreatic Carcinoma)
Summary of the method: as §1

[5] = tested on: SCC-4 (Oral Cavity Carcinoma)
Summary of the method: as §1

[6] = tested on: SKG-IIIa (Cervical Carcinoma)
Summary of the method: as §1

[7] = tested on: NCI-H596 (Other Solid Carcinomas)
Summary of the method: as §1

[8] = tested on: LCLC-103H (Non-Small Cell Lung Carcinoma)
Summary of the method: as §1

[9] = tested on: NCI-H226 (Mesothelioma)
Summary of the method: as §1

[10] = tested on: NB1 (Neuroblastoma)
Summary of the method: as §1

[11] = tested on: IA-LM (Non-Small Cell Lung Carcinoma)
Summary of the method: as §1

[12] = tested on: AM-38 (Glioblastoma)
Summary of the method: as §1

[13] = tested on: PA-TU-8988T (Pancreatic Carcinoma)
Summary of the method: as §1

[14] = tested on: SUP-M2 (T-Cell Non-Hodgkin's Lymphoma)
Summary of the method: as §1

[15] = tested on: MS-1 (Small Cell Lung Carcinoma)
Summary of the method: as §1

[16] = tested on: BxPC-3 (Pancreatic Carcinoma)
Summary of the method: as §1

[17] = tested on: NCI-H3118 (Head and Neck Carcinoma)
Summary of the method: as §1

[18] = tested on: UACC-257 (Melanoma)
Summary of the method: as §1

[19] = tested on: GAK (Melanoma)
Summary of the method: as §1

[20] = tested on: T47D (Breast Carcinoma)
Summary of the method: as §1

Row | SMILES | combination Emax [1] | combination Emax [2] | combination Emax [3] | combination Emax [4] | combination Emax [5] | combination Emax [6] | combination Emax [7] | combination Emax [8] | combination Emax [9] | combination Emax [10] | combination Emax [11] | combination Emax [12] | combination Emax [13] | combination Emax [14] | combination Emax [15] | combination Emax [16] | combination Emax [17] | combination Emax [18] | combination Emax [19] | combination Emax [20]
1 | CN(C)CCCOc1ccc(-c2ccc3ncc4c(c3c2)n(C2CCOCC2)c(=O)n4C)cn1 [AZD0156] + C[C@@H]1COCCN1C2=NC(=NC(=C2)C3(CC3)[S@](=N)(=O)C)C4=C5C=CNC5=NC=C4 [AZD6738] (first compound max 1 µM, 7x7, partner max 10 µM) | 0.451 | 0.395 | 0.495 | 0.718 | 0.702 | 0.233 | 0.454 | 0.55 | 0.0975 | 0.933 | 0.304 | 0.868 | 0.476 | 0.985 | 0.873 | 0.475 | 0.672 | 0.145 | 0.703 | 0.282
2 | Cn1cnc2c(F)c(Nc3ccc(Br)cc3Cl)c(C(=O)NOCCO)cc21 [Selumetinib] + C[C@@H]1COCCN1C2=NC(=NC(=C2)C3(CC3)[S@](=N)(=O)C)C4=C5C=CNC5=NC=C4 [AZD6738] (first compound max 10 µM, 7x7, partner max 10 µM) | 0.506 | 0.458 | 0.285 | 0.798 | 0.502 | 0.214 | 0.36 | 0.324 | 0.152 | 0.783 | 0.287 | 0.706 | 0.466 | 1 | 0.667 | 0.494 | 0.653 | 0.595 | 0.667 | 0.158
3 | Cc1c2c(nn1C)CSCc1cc(n(C)n1)CSc1cc(c3ccccc3c1)OCCCc1c(C(=O)O)n(C)c3c-2c(Cl)ccc13 [AZD5991] + C1CN(CCC1(C(=O)N[C@@H](CCO)C2=CC=C(C=C2)Cl)N)C3=NC=NC4=C3C=CN4 [Capivasertib] (first compound max 1 µM, 7x7, partner max 3 µM) | 0.143 | 0.801 | 0.341 | 0.339 | 0.334 | 0.18 | 0.318 | 0.242 | 0.2 | 0.507 | 0.15 | 0.494 | 0.34 | 1 | 0.524 | 0.126 | 0.245 | 0.252 | 0.179 | 0.579
4 | CN(CCO)CC[C@H](CSc1ccccc1)Nc1ccc(S(=O)(=O)NC(=O)c2ccc(N3CCC([C@@H](O)c4ccccc4-c4ccc(Cl)cc4)CC3)cc2)cc1S(=O)(=O)C(F)(F)F [AZD4320] + Cn1cnc2c(F)c(Nc3ccc(Br)cc3Cl)c(C(=O)NOCCO)cc21 [Selumetinib] (first compound max 1 µM, 7x7, partner max 3 µM) | 0.254 | 0.583 | 0.414 | 0.751 | 0.775 | 0.431 | 0.343 | 0.423 | 0.204 | 0.448 | 0.744 | 0.951 | 0.379 | 0.959 | 0.533 | 0.379 | 0.422 | 0.838 | 0.796 | 0.314
5 | C[C@@H]1COCCN1c1cc(C2([S@](C)(=N)=O)CC2)nc(-c2ccnc3[nH]ccc23)n1 [AZD6738] + O=C(c1cc(Cc2n[nH]c(=O)c3ccccc23)ccc1F)N1CCN(C(=O)C2CC2)CC1 [Olaparib] (first compound max 10 µM, 7x7, partner max 10 µM) | 0.706 | 0.446 | 0.576 | 0.672 | 0.729 | 0.444 | 0.5 | 0.504 | 0.207 | 0.772 | 0.399 | 0.747 | 0.448 | 1 | 0.742 | 0.485 | 0.64 | 0.142 | 0.564 | 0.301
6 | Cc1c2c(nn1C)CSCc1cc(n(C)n1)CSc1cc(c3ccccc3c1)OCCCc1c(C(=O)O)n(C)c3c-2c(Cl)ccc13 [AZD5991] + Cn1cnc2c(F)c(Nc3ccc(Br)cc3Cl)c(C(=O)NOCCO)cc21 [Selumetinib] (first compound max 1 µM, 7x7, partner max 3 µM) | 0.226 | 0.398 | 0.27 | 0.573 | 0.839 | 0.24 | 0.241 | 0.176 | 0.224 | 0.238 | 0.24 | 0.709 | 0.393 | 1 | 0.375 | 0.483 | 0.481 | 0.817 | 0.776 | 0.364
7 | Cn1cnc2c(F)c(Nc3ccc(Br)cc3Cl)c(C(=O)NOCCO)cc21 [Selumetinib] + CC(C)n1c(=O)n(C)c2cnc3cc(F)c(-c4ccc(OCCCN5CCCCC5)nc4)cc3c21 [AZD1390] (first compound max 10 µM, 7x7, partner max 0.3 µM) | 0.283 | 0.222 | 0.275 | 0.567 | 0.278 | 0.2 | 0.21 | 0.138 | 0.133 | 0.127 | 0.244 | 0.437 | 0.321 | 0.168 | 0.117 | 0.4 | 0.577 | 0.568 | 0.626 | 0.109
8 | CN(CCO)CC[C@H](CSc1ccccc1)Nc1ccc(S(=O)(=O)NC(=O)c2ccc(N3CCC([C@@H](O)c4ccccc4-c4ccc(Cl)cc4)CC3)cc2)cc1S(=O)(=O)C(F)(F)F [AZD4320] + C1CN(CCC1(C(=O)N[C@@H](CCO)C2=CC=C(C=C2)Cl)N)C3=NC=NC4=C3C=CN4 [Capivasertib] (first compound max 1 µM, 7x7, partner max 3 µM) | 0.101 | 0.968 | 0.406 | 0.497 | 0.598 | 0.131 | 0.42 | 0.238 | 0.227 | 0.689 | 0.376 | 0.561 | 0.22 | 0.365 | 0.52 | 0.0788 | 0.0845 | 0.1 | 0.135 | 0.364
9 | CC(=O)c1c(C)c2cnc(Nc3ccc(N4CCNCC4)cn3)nc2n(C2CCCC2)c1=O [Palbociclib] + CC1(C)CCC(CN2CCN(c3ccc(C(=O)NS(=O)(=O)c4ccc(NCC5CCOCC5)c([N+](=O)[O-])c4)c(Oc4cnc5[nH]ccc5c4)c3)CC2)=C(c2ccc(Cl)cc2)C1 [Venetoclax] (first compound max 10 µM, 7x7, partner max 1 µM) | 0.383 | 0.155 | 0.179 | 0.184 | 0.0364 | 0.0106 | 0.134 | 0.251 | 0.176 | 0.345 | 0.0755 | 0.328 | 0.141 | 0.738 | 0.303 | 0.0941 | 0.318 | 0.057 | 0.205 | 0.237
10 | Cc1c2c(nn1C)CSCc1cc(n(C)n1)CSc1cc(c3ccccc3c1)OCCCc1c(C(=O)O)n(C)c3c-2c(Cl)ccc13 [AZD5991] + CC1(C)CCC(CN2CCN(c3ccc(C(=O)NS(=O)(=O)c4ccc(NCC5CCOCC5)c([N+](=O)[O-])c4)c(Oc4cnc5[nH]ccc5c4)c3)CC2)=C(c2ccc(Cl)cc2)C1 [Venetoclax] (first compound max 1 µM, 7x7, partner max 1 µM) | 0.157 | 0.73 | 0.144 | 0.234 | 0.345 | 0.251 | 0.289 | 0.145 | 0.196 | 0.535 | 0.317 | 0.597 | 0.151 | 0.994 | 0.76 | 0.334 | 0.412 | 0.308 | 0.523 | 0.434
11 | CCc1c2c(nc3ccc(O)cc13)-c1cc3c(c(=O)n1C2)COC(=O)[C@]3(O)CC [SN-38] + CN(C)CCCOc1ccc(-c2ccc3ncc4c(c3c2)n(C2CCOCC2)c(=O)n4C)cn1 [AZD0156] (first compound max 0.3 µM, 7x7, partner max 1 µM) | 0.817 | 0.294 | 0.455 | 0.828 | 0.839 | 0.42 | 0.348 | 0.486 | 0.337 | 0.83 | 0.882 | 0.917 | 0.704 | 1 | 0.63 | 0.523 | 0.402 | 0.281 | 0.477 | 0.643
12 | CN(C)CCCOc1ccc(-c2ccc3ncc4c(c3c2)n(C2CCOCC2)c(=O)n4C)cn1 [AZD0156] + C=CCn1c(=O)c2cnc(Nc3ccc(N4CCN(C)CC4)cc3)nc2n1-c1cccc(C(C)(C)O)n1 [AZD1775] (first compound max 1 µM, partner max 1 µM) | 0.571 | 0.177 | 0.506 | 0.445 | 0.526 | 0.203 | 0.307 | 0.519 | 0.196 | 0.936 | 0.231 | 0.437 | 0.718 | 1 | 0.877 | 0.457 | 0.842 | 0.14 | 0.745 | 0.343
